Measurements as given in PubChem BioAssay AID504726 (Broad Institute, 2011).
The source made the active and inactive calls.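 The calls were made as follows: active = fitted half-maximal concentration for a cytotoxic signal drop no higher than ten times the top valid dose tested; inconclusive = flat curve between -70 and -30 percent, or an unreliable fit; inactive = flat within 30 percent, signal rise, or potency beyond limit.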

Assay: HeLa cell cytotoxicity, dose response, cytotoxicity control, 24 h, cherry-picked samples (AID 504726);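 also: 0% = DMSO neutral controls and -100% = mitoxantrone positive controls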
Settings: HeLa viability, CellTiter-Glo ATP luminescence, 24 h; at 35 µM (top of the series)

SMILES	activity change, negative = cytotoxicity
CC(OC(=O)c1cn(C)c2ccccc12)C(=O)N1CCCC1 (stereo not given)	-9.43% (inactive)
CCOC(=O)CCCn1c(C)nc(=O)c(-c2ccccc2)c1C	4.75% (inactive)
C=CCOC(=O)C1=C[C@H](c2csc3ccccc23)C[C@H](OCc2ccc(CO)cc2)O1	-9.53% (inactive)
CC(C)C(C(=O)O)N1C(=O)/C(=C/C=C/c2ccco2)SC1=S (stereo not given)	-14.8% (inactive)
CSCCC(NC(=O)c1ccccc1Cl)C(=O)N1CCCC(C)C1 (stereo not given)	-15.7% (inactive)
COC(=O)c1cccc(COC(=O)c2ccccc2NC(=O)c2ccco2)c1	-11.1% (inactive)
CC(=O)OCCn1c2nc(=O)[nH]c(=O)c-2nc2cc(C)c(C)cc21	-8.08% (inactive)
O=c1c2cc(O)c(O)cc2oc2cc(O)c(C3OC(CO)C(O)C(O)C3O)c(O)c12 (stereo not given)	3.92% (inactive)
CCOC(=O)c1sc(NC(=O)CSC(=S)N2CCN(C)CC2)nc1C	-7.44% (inactive)
CC(C)c1ccc(CNc2ccc([N+](=O)[O-])cn2)cc1	-10.7% (inactive)
CC(=O)OCCCn1c(C)[n+](C)c2cc(Cl)c(Cl)cc21	-14.3% (inactive)
CCc1noc(C)c1C(=O)N1CCCC(N2CCN(c3ccc(F)cc3)CC2)C1 (stereo not given)	-1.12% (inactive)
COc1cc2c(cc1OC)-c1cc3ccc4c(c3c[n+]1CC2)OCO4	-12.1% (inactive)
Cn1c(=O)c(NC2CCCCC2)c2c3c(cccc31)C(=O)c1ccccc1-2	-11.9% (inactive)
CCc1ccc[n+](-c2[nH]c(=O)sc2/C=N/NC([S-])=Nc2ccccc2)c1	-14.2% (inactive)
Cc1ccc(NC(=S)N/C(=N/S(=O)(=O)c2ccccc2)c2ccccc2)cc1	6.71% (inactive)
Nc1cccc2cc(S(=O)(=O)O)ccc12	5.33% (inactive)
CCC(=O)Oc1ccc2c(c1)O/C(=C\c1ccco1)C2=O	4.02% (inactive)
CCN(CC(=O)Nc1ccc(OC)cc1)C(=O)c1cc([N+](=O)[O-])ccc1N1CCOCC1	-3.5% (inactive)
Cc1cc(/C=N/Nc2ccc([N+](=O)[O-])cn2)c(C)n1-c1cccc(C(=O)O)c1	-4.63% (inactive)
O=c1[nH]c(=O)n(C2CCCCC2)c(O)c1C=Nc1ccc(N2CCOCC2)cc1	-11.5% (inactive)
O=C(OCC(=O)N1N=C(c2ccc(Cl)cc2)CC1c1ccco1)c1cccnc1 (stereo not given)	-11.7% (inactive)

SMILES	activity change, negative = cytotoxicity
COc1ccc(C(=O)OCC(=O)NC2CC2)cc1S(=O)(=O)Nc1ccc(C)cc1	3.27% (inactive)
O=C(CCN1C(=O)/C(=C\c2ccco2)SC1=S)Nc1ccc(C(=O)O)c(O)c1	4.66% (inactive)
Cc1n[nH]c(C)c1N1C(=O)c2cccc3c(N4CCCCCC4)ccc(c23)C1=O	-15.8% (inactive)
CCOC(=O)CN1NC2(CCCCCC2)NC1=S	-1.79% (inactive)
CCSc1nnc(Cc2cc(=O)[nH]c(=O)[nH]2)n1-c1ccc(F)cc1	-15.6% (inactive)
O=C1c2cccc3c(O)ccc(c23)C(=O)N1Cc1ccco1	8.13% (inactive)
O=C(O)c1ccccc1NC(=O)c1cc(-c2ccccc2)nc2ccccc12	-2.32% (inactive)
Nc1ccc2c3c(cccc13)C(=O)N(c1ccccc1)C2=O	19% (inactive)
COc1ccc(NS(=O)(=O)c2ccc(C)c(C(=O)N(C)Cc3ccc(OC)cc3OC)c2)cc1	-7.58% (inactive)
O=C(C1CCCO1)N1CCN(c2ncccn2)CC1 (stereo not given)	-0.396% (inactive)
CC(C(=O)Nc1ccc(C(=O)O)c(O)c1)N1C(=O)/C(=C\c2ccco2)SC1=S (stereo not given)	-7.47% (inactive)
CCN(C(=O)c1cccc(S(=O)(=O)N2CCc3ccccc32)c1)C1CCS(=O)(=O)C1 (stereo not given)	-1.74% (inactive)
CCN(Cc1ccccc1)C(=O)c1cccc(S(=O)(=O)N2CCN(Cc3ccccc3)CC2)c1	1.39% (inactive)
CC(=O)NC(C(=O)c1ccccc1)C(=O)c1ccccc1	7.04% (inactive)
COc1cc(OC)cc(C(=O)NC2CC3CCC(C2)N3C)c1 (stereo not given)	3.6% (inactive)
O=C(O)c1ccc2c(c1)C(=O)/C(=C\c1ccco1)C2=O	3.44% (inactive)
CCCc1cc(=O)oc2cc(C)cc(OCC(=O)O)c12	-7.49% (inactive)
O=C(O)CN1C(=O)/C(=C\c2cc(Br)ccc2OCc2ccc([N+](=O)[O-])cc2)SC1=S	-1.76% (inactive)
CCN(CC)c1ccc2cc(S(=O)(=O)c3ccc(Cl)cc3)c(=O)oc2c1	-13.6% (inactive)
COc1ccc(-c2csc(NC(=O)CSc3nc(C)nc4sc(C(=O)O)c(C)c34)n2)cc1	-1.52% (inactive)
COc1ccc(CC(=O)O/N=C(\N)c2ccc(OC)cc2)cc1	-11.5% (inactive)
Cc1nc(Cl)c2c(n1)NC1=C(O2)C(=O)CCC1	-16.2% (inactive)

SMILES	activity change, negative = cytotoxicity
CCOC(=O)C1Nc2ccccc2C2C(O)C(O)CC12 (stereo not given)	7.37% (inactive)
CCNC(=O)COC(=O)c1cccc(Br)c1	-0.098% (inactive)
O=C(c1coc(=O)c(Br)c1)N1CCCc2ccccc21	-15% (inactive)
CN(N=Nc1ccc([N+](=O)[O-])cc1)c1ccccc1	-18.3% (inactive)
CC(=O)Nc1ccc(S(=O)(=O)Nc2ccccc2N2CCOCC2)cc1	1.3% (inactive)
Nc1ccc2nc3c(=O)n(C4CCCCC4)c(=O)[nH]c3nc2c1	-0.337% (inactive)
COc1ccc(OC)c(N2C(=O)NC(=O)/C(=C\c3ccc([N+](=O)[O-])s3)C2=O)c1	-3.62% (inactive)
O=C(O)c1ccccc1NS(=O)(=O)c1ccc(N/N=C/c2ccc(O)c(O)c2)c([N+](=O)[O-])c1	-10.9% (inactive)
Cc1cc(C(F)(F)F)c2c(N)c(C(=O)Nc3cc(C)on3)sc2n1	-0.48% (inactive)
O=S(=O)(O)c1cccc2cccc(Nc3ccccc3)c12	-4.31% (inactive)
O=C(CCCN1C(=O)/C(=C\c2ccco2)SC1=S)Nc1ccc(O)cc1C(=O)O	4.85% (inactive)
COc1ccccc1C(=O)NCC(=O)OCC(=O)N(CC(C)C)c1c(N)n(Cc2ccccc2)c(=O)[nH]c1=O	1.22% (inactive)
CCOC(=O)N1CCN(C(=S)NC(=O)c2cccc(OC)c2)CC1	-2.14% (inactive)
COc1ccc(C(C)=O)cc1CN(C)C	9% (inactive)
CN(C)C(=O)c1ccc(NC(=O)COC(=O)C2(c3ccccc3)CCCC2)cc1	-4.12% (inactive)
COCCN(CCOC)Cc1c(O)ccc2c1O/C(=C\c1ccco1)C2=O	-13.7% (inactive)
C=C(C)C(=O)Nc1cccc(C2=NOC3(C2)C[C@@H](C(N)=O)N(C(=O)C2(C)CC2)C3)c1 (stereo not given in full)	1.25% (inactive)
NC(=S)N/N=C/c1cn(CCC(=O)O)nc1-c1cccc(Br)c1	-7.24% (inactive)
CN1CCN(C(=S)c2ccc(N(C)C)cc2)CC1	6.8% (inactive)
CCOc1ccc(/C=C2\CCCc3c2nc2ccccc2c3C(=O)O)cc1OC	-5% (inactive)
O=C(CCNc1ccc(Cc2ccncc2)cc1)c1cccc([N+](=O)[O-])c1	-10% (inactive)
COc1ccc(N=C2SC(CC(=O)Nc3ccccc3)C(=O)N2Cc2ccco2)cc1 (stereo not given)	-17.3% (inactive)

SMILES	activity change, negative = cytotoxicity
O=C(CSc1cccc2cccnc12)N/N=C/c1ccc(O)cc1	0.069% (inactive)
Cc1cc(OCC(=O)OC(C)(C)C)c2c3c(c(=O)oc2c1)CCC3	0.477% (inactive)
COc1cc(O)c(C(C)=O)c(CC(=O)O)c1	-0.718% (inactive)
Nc1nc(-c2ccc(C(=O)O)cc2)cs1	-2% (inactive)
CC(C)=C1C2C=CC1C(C(=O)Nc1cc(C)ccc1C)C2C(=O)O (stereo not given)	-4.56% (inactive)
COc1ccc(NS(=O)(=O)c2ccc3c(c2)[C@H]2C=CC[C@H]2[C@@H](c2ccc(C(=O)O)cc2)N3)cc1	-3.11% (inactive)
CCOCCCn1c(SCC(=O)NC(C)(C)C)nc2ccccc2c1=O	-18.7% (inactive)
O=C(O)C(Cc1ccccc1)N1C(=O)/C(=C/C=C/c2ccco2)SC1=S (stereo not given)	-11.4% (inactive)
CS(=O)(=O)Nc1nc2n(n1)C(c1ccccc1)C=C(c1ccc(Br)cc1)N2 (stereo not given)	-2.61% (inactive)
CCCCN(C(=O)C(C)Oc1ccc(Br)cc1)c1c(N)n(CC(C)C)c(=O)[nH]c1=O (stereo not given)	3.21% (inactive)
Cc1ccc2cccc(OCC(=O)NCCC3=CCCCC3)c2n1	-6.65% (inactive)
COC(=O)c1ccccc1NC(=O)CCS(=O)(=O)c1ccc(Br)cc1	10.1% (inactive)
CCN(C(=O)COC(=O)c1nc2nc(C)cc(C)n2n1)C1CCCCC1	5.26% (inactive)
Cc1ccsc1/C=N/NC(=O)Cc1ccc(Cl)cc1	1.7% (inactive)
Oc1ccc2ccc3cccc[n+]3c2c1	-13.8% (inactive)
CC(C)C(=O)N1CCN(c2ccccc2NC(=S)NC(=O)c2ccco2)CC1	-12.9% (inactive)
NNC(=O)C1C(O)CCC2CN3CCc4c([nH]c5ccccc45)C3CC21 (stereo not given)	-12.3% (inactive)
Cc1cccc(C)c1NC(=O)CSc1nnc(-c2ccco2)c(-c2ccco2)n1	-6.45% (inactive)
O=C(NC12CC3CC(CC(C3)C1)C2)N1CCN(c2ncccn2)CC1	12.9% (inactive)
